Values quoted from earlier work in US20140044784A1, “COMBINED FORMULATION WITH IMPROVED STABILITY” (BORYUNG PHARMACEUTICAL CO., LTD, priority 2011, published 2014).

Conditions: daily administration of a low dose (about 80 mg)

Compound: CC(=O)Oc1ccccc1C(=O)O [aspirin, acetylsalicylic acid]
- Reduction of heart attack, stroke, and cardiovascular mortalities: at least 25%
